The compounds below were run against T1, Recombinant N-terminal GST tag full-length human HDAC8 (Homo sapiens, UniProt Q9BY41) (assay: HDAC8 probe binding assay, time resolved fluorescence (TRF)). Details: fluorescein labeled pan-HDAC inhibitor probe, 16 hours incubation, compounds listed under IC50 range headings.
T1 construct: Recombinant N-terminal GST tag full-length human HDAC8; purchased SignalChem H90-30G-1000; host or cells: Sf9 insect cells (baculovirus)
T1 sequence (Q9BY41 1-377): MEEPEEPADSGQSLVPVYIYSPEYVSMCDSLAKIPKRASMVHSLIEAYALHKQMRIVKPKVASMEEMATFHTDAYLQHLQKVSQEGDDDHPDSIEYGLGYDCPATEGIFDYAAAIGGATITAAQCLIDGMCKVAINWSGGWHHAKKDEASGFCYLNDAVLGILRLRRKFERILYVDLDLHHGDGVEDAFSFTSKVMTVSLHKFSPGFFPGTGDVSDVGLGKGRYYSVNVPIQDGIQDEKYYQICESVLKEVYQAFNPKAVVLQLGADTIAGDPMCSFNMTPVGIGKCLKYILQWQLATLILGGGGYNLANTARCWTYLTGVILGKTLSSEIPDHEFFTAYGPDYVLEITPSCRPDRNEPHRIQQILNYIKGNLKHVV
Procedure: The HDAC8 probe binding assay was performed using a time resolved fluorescence (TRF) assay format. Recombinant N-terminal GST tag full-length human HDAC8 was expressed and purified from baculovirus in Sf9 insect cells (SignalChem, #H90-30G-1000), Each assay was performed in 1536 black well microplates (Corning, #3936) in a final volume of 4 μL in assay buffer containing 50 mM HEPES (pH 7.5), 50 mM KCl, 50 mM NaCl, 0.5 mM GSH (L-Glutathione reduced, Sigma #G4251), 0.03% BGG (0.22 μM filtered, Sigma, #G7516-25G), and 0.01% Triton X-100 (Sigma, #T9284-10L). 20 nL of 10-point, 3-fold serial dilution in DMSO was pre-dispensed into respective wells of 1536 assay plates for a final test concentration range of 25 μM to 1.3 nM respectively. The final concentration in the assay of HDAC8 and probe (a fluorescein labeled pan-HDAC inhibitor) was 2.5 nM and 1.5 nM respectively. 2 μL of 2× probe and 2× anti-GST Terbium (Cisbio, #61GSTXLB) was added to assay plates followed by 2 μL of 2× HDAC8. Plates were incubated for 16 hours at room temperature before time resolved fluorescence was read on the Envision (Excitation at 340 nm, and Emission at 485 nm and 535 nm, Perkin Elmer).
Data from HDAC8 Assays were reported as percent inhibition (inh) compared with control wells based on the following equation: % inh=1−((FLU−AveLow)/(AveHigh−AveLow)) where FLU=measured time resolved fluorescence. AveLow=average time resolved fluorescence of no enzyme control (n=32). AveHigh=average time resolved fluorescence of DMSO control (n=32). IC50 values were determined by curve fitting of the standard 4 parameter logistic fitting algorithm included in the Activity Base software package: IDBS XE Designer Model205. Data is fitted using the Levenburg Marquardt algorithm.
Work on `O=C(/C=C/c1ccccc1N1CCN(Cc2ccccc2)CC1=O)NO` [Example I-495, (E)-3-(2-(4-benzyl-2-oxopiperazin-1-yl)phenyl)-N-hydroxyacrylamide] yielded an IC50 of no more than 1000 nM. In the case of `O=C(/C=C/c1ccccc1N1CCN(c2ccc(F)cc2)C1=O)NO` [Example I-501, (E)-3-(2-(3-(4-fluorophenyl)-2-oxoimidazolidin-1-yl)phenyl)-N-hydroxyacrylamide], the IC50 is reported as no more than 1000 nM. `O=C(/C=C/c1ccccc1N1CCN(c2ccc(OC(F)(F)F)cc2)CC1=O)NO` [Example I-503, (E)-N-hydroxy-3-(2-(2-oxo-4-(4-(trifluoromethoxy)phenyl)piperazin-1-yl)phenyl)acrylamide] gave an IC50 of no more than 1000 nM. `O=C(/C=C/c1ccccc1N1CCN(c2ccc(F)cc2)CC1=O)NO` [Example I-504, (E)-3-(2-(4-(4-fluorophenyl)-2-oxopiperazin-1-yl)phenyl)-N-hydroxyacrylamide] was tested, and the IC50 was no more than 1000 nM. `COc1cc(F)ccc1Oc1ccccc1C(=O)Nc1ccccc1/C=C/C(=O)NO` [Example I-546, (E)-2-(4-fluoro-2-methoxyphenoxy)-N-(2-(3-(hydroxyamino)-3-oxoprop-1-en-1-yl)phenyl)benzamide] gave an IC50 of no more than 1000 nM. `Cn1cc(Oc2ccccc2C(=O)Nc2ccccc2/C=C/C(=O)NO)cn1` [Example I-548, N-{2-[(1E)-2-(hydroxycarbamoyl)eth-1-en-1-yl]phenyl}-2-[(1-methyl-1H-pyrazol-4-yl)oxy]benzamide] gave an IC50 of no more than 1000 nM. Work on `O=C(/C=C/c1cc(Cl)ccc1NC(=O)c1ccccc1Oc1ccc(F)cc1)NO` [Example I-549, N-{4-chloro-2-[(1E)-2-(hydroxycarbamoyl)eth-1-en-1-yl]phenyl}-2-(4-fluorophenoxy)benzamide] yielded an IC50 of no more than 1000 nM. Compound `CC(C)(C)OC(=O)N1CCCC12CN(c1ccccc1/C=C/C(=O)NO)C2` [Example I-550, tert-butyl (E)-2-(2-(3-(hydroxyamino)-3-oxoprop-1-en-1-yl)phenyl)-2,5-diazaspiro[3.4]octane-5-carboxylate] has an IC50 of no more than 1000 nM. `COc1ccc(F)cc1Oc1ccccc1C(=O)Nc1ccccc1/C=C/C(=O)NO` [Example I-551, 2-(5-fluoro-2-methoxyphenoxy)-N-{2-[(1E)-2-(hydroxycarbamoyl)eth-1-en-1-yl]phenyl}benzamide] gave an IC50 of no more than 1000 nM. For `COc1cccc(Oc2ccccc2C(=O)Nc2ccccc2/C=C/C(=O)NO)c1` [Example I-552, N-{2-[(1E)-2-(hydroxycarbamoyl)eth-1-en-1-yl]phenyl}-2-(3-methoxyphenoxy)benzamide], the IC50 was no more than 1000 nM. In the case of `COc1cnccc1Oc1ccccc1C(=O)Nc1ccccc1/C=C/C(=O)NO` [Example I-553, N-{2-[(1E)-2-(hydroxycarbamoyl)eth-1-en-1-yl]phenyl}-2-[(3-methoxypyridin-4-yl)oxy]benzamide], the IC50 is reported as no more than 1000 nM. `O=C(/C=C/c1ccccc1N1CCCC12CN(C(=O)c1ccc(F)cc1)C2)NO` [Example I-554, (E)-3-(2-(2-(4-fluorobenzoyl)-2,5-diazaspiro[3.4]octan-5-yl)phenyl)-N-hydroxyacrylamide] showed an IC50 of 1000 to 100000 nM. With `O=C(/C=C/c1cc(F)ccc1NC(=O)c1ccccc1Oc1ccc(F)cc1)NO` [Example I-555, N-{4-fluoro-2-[(1E)-2-(hydroxycarbamoyl)eth-1-en-1-yl]phenyl}-2-(4-fluorophenoxy)benzamide] the IC50 was no more than 1000 nM. With `Cn1cc(Oc2ccccc2C(=O)Nc2ccc(F)cc2/C=C/C(=O)NO)cn1` [Example I-558, N-{4-fluoro-2-[(1E)-2-(hydroxycarbamoyl)eth-1-en-1-yl]phenyl}-2-[(1-methyl-1H-pyrazol-4-yl)oxy]benzamide] the IC50 was no more than 1000 nM. `COc1ccc(Oc2ccccc2C(=O)Nc2ccccc2/C=C/C(=O)NO)cc1` [Example I-559] showed an IC50 of no more than 1000 nM. `Cc1ccc(Oc2ccccc2C(=O)Nc2ccc(Cl)cc2/C=C/C(=O)NO)cn1` [Example I-560, N-{4-chloro-2-[(1E)-2-(hydroxycarbamoyl)eth-1-en-1-yl]phenyl}-2-[(6-methylpyridin-3-yl)oxy]benzamide] gave an IC50 of no more than 1000 nM. With `O=C(/C=C/c1ccccc1N1CCCC12CN(C(=O)Cc1ccccc1)C2)NO` [Example I-561, (E)-N-hydroxy-3-(2-(2-(2-phenylacetyl)-2,5-diazaspiro[3.4]octan-5-yl)phenyl)acrylamide] the IC50 was no more than 1000 nM. With `O=C(/C=C/c1ccccc1N1CCCC12CN(C(=O)Cc1ccc(F)cc1)C2)NO` [Example I-562] the IC50 was no more than 1000 nM. In the case of `O=C(/C=C/c1c(Cl)cccc1NC(=O)c1ccccc1Oc1ccc(F)cc1)NO` [Example I-563, N-{3-chloro-2-[(1E)-2-(hydroxycarbamoyl)eth-1-en-1-yl]phenyl}-2-(4-fluorophenoxy)benazmide], the IC50 is reported as no more than 1000 nM. `O=C(/C=C/c1ccc(Cl)cc1NC(=O)c1ccccc1Oc1ccc(F)cc1)NO` [Example I-564, N-{5-chloro-2-[(1E)-2-(hydroxycarbamoyl)eth-1-en-1-yl]phenyl}-2-(4-fluorophenoxy)benzamide] was tested, and the IC50 was no more than 1000 nM. For `O=C(/C=C/c1ccccc1N1CCCC12CN(C(=O)C1CCCC1)C2)NO` [Example I-565, (E)-3-(2-(2-(cyclopentanecarbonyl)-2,5-diazaspiro[3.4]octan-5-yl)phenyl)-N-hydroxyacrylamide], the IC50 was no more than 1000 nM. `O=C(/C=C/c1ccccc1N1CCCC12CN(C(=O)CC(F)(F)F)C2)NO` [Example I-566, (E)-N-hydroxy-3-(2-(2-(3,3,3-trifluoropropanoyl)-2,5-diazaspiro[3.4]octan-5-yl)phenyl)acrylamide] was tested, and the IC50 was no more than 1000 nM. With `O=C(/C=C/c1ccccc1N1CCCC12CN(C(=O)C1CCCCC1)C2)NO` [Example I-567, (E)-3-(2-(2-(cyclohexanecarbonyl)-2,5-diazaspiro[3.4]octan-5-yl)phenyl)-N-hydroxyacrylamide] the IC50 was 1000 to 100000 nM. `CC1(C(=O)N2CC3(CCCN3c3ccccc3/C=C/C(=O)NO)C2)CCCCC1` [Example I-568, (E)-N-hydroxy-3-(2-(2-(1-methylcyclohexane-1-carbonyl)-2,5-diazaspiro[3.4]octan-5-yl)phenyl)acrylamide] gave an IC50 of no more than 1000 nM. In the case of `CC(C)(C)C(=O)N1CC2(CCCN2c2ccccc2/C=C/C(=O)NO)C1` [Example I-569], the IC50 is reported as no more than 1000 nM.

The compounds below were run against T2, Full length human recombinant HDAC8 protein (Homo sapiens, UniProt Q9BY41) (assay: In vitro histone deacetylase assay: enzymatic HDAC8 assay, electrophoretic mobility shift). Details: substrate RHKK(Ac)-NH2, 1 nM enzyme, compounds listed under IC50 range headings.
T2 construct: Full length human recombinant HDAC8 protein was expressed in baculoviral system; made in house
T2 sequence (Q9BY41 1-377): T1 sequence (Q9BY41 1-377)
Format: biochemical
Method in brief: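 Baculovirus-expressed full-length human HDAC8 (1 nM) deacetylated 2 µM fluorescent RHKK(Ac)-NH2 peptide in pH 7.5 HEPES, 1% DMSO, at 25 °C, with 12 compound concentrations at 3× spacing. SDS-quenched; product and substrate resolved by microfluidic electrophoresis, P/(S+P) converted to percent inhibition, and IC50 obtained by 4-parameter fit.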
In the case of `O=C(/C=C/c1ccccc1C(=O)N1CCN(CCc2ccccc2)CC1)NO` [II-21, (E)-N-hydroxy-3-(2-(4-phenethylpiperazine-1-carbonyl)phenyl)acrylamide], the IC50 is reported as less than 1000 nM. For `O=C(/C=C/c1ccccc1C(=O)N1CCC(C(F)(F)F)CC1)NO` [II-23, (E)-N-hydroxy-3-(2-(4-(trifluoromethyl)piperidine-1-carbonyl)phenyl)acrylamide], the IC50 was less than 1000 nM. Compound `O=C(/C=C/c1ccccc1C(=O)N1CCS(=O)(=O)CC1)NO` [II-24, (E)-3-(2-(1,1-dioxidothiomorpholine-4-carbonyl)phenyl)-N-hydroxyacrylamide] has an IC50 of less than 1000 nM. In the case of `Cn1cc2c(n1)CCN(C(=O)c1ccccc1/C=C/C(=O)NO)C2` [II-25, (E)-N-hydroxy-3-(2-(2-methyl-4,5,6,7-tetrahydro-2H-pyrazolo[4,3-c]pyridine-5-carbonyl)phenyl)acrylamide], the IC50 is reported as less than 1000 nM. `Cc1nnc(C)n1C1CCN(C(=O)c2ccccc2/C=C/C(=O)NO)CC1` [II-26, (E)-3-(2-(4-(3,5-dimethyl-4H-1,2,4-triazol-4-yl)piperidine-1-carbonyl)phenyl)-N-hydroxyacrylamide] was tested, and the IC50 was less than 1000 nM. `O=C(/C=C/c1ccccc1S(=O)(=O)C1CCN(Cc2ccccc2)CC1)NO` [II-30, (E)-3-(2-((1-benzylpiperidin-4-yl)sulfonyl)phenyl)-N-hydroxyacrylamide] showed an IC50 of less than 1000 nM. In the case of `O=C(/C=C/c1ccccc1C(=O)Nc1cccc(C(F)(F)F)c1)NO` [II-36, (E)-2-(3-(hydroxyamino)-3-oxoprop-1-en-1-yl)-N-(3-(trifluoromethyl)phenyl)benzamide], the IC50 is reported as less than 1000 nM.

Reference: patent US10508077B2 (FORMA Therapeutics, Inc., priority 2015, dated 2019)
